Results taken from patent US20260174717A1 (Sumitomo Pharma America, Inc., priority 2022, published 2026).
Marks after values point to notes of the source that are not given here.

Key:
Male Swiss mice [1] = assay: mouse marble burying test; format: in vivo; settings: 8 mg/kg, ip; positive control; 30 min before 30 min test
Experimental: (§1) Thirty minutes later mice were individually placed in transparent plastic cages with 5 cm of sawdust on the floor and 25 marbles grouped in the center of the cage. The number of marbles covered by sawdust (2/3rd or more covered) was counted at the end of the 30 min test. Two days later, general locomotor activity was assessed in the activity meter test in the same animals. Mice were placed in an automated activity meter apparatus 30 minutes after dosing and the number of crossings recorded in 5-minute time bins for 30 minutes. Chlorpromazine (4 mg/kg, i.p.) was included as a positive assay control. […] Locomotor activity was analyzed by one-way ANOVA followed by Dunnett's post-hoc analysis. Effects of clobazam in the marble burying and activity meter tests were examined with the Mann-Whitney U test and unpaired student's t-test, respectively.

Male Swiss mice [2] = assay: mouse activity meter test (general locomotor activity); format: in vivo; settings: 4 mg/kg, ip; positive assay control; 30 minutes after dosing, recorded for 30 minutes
Experimental: as §1

CN1C(=O)CC(=O)N(c2ccccc2)c2cc(Cl)ccc21 [Clobazam, clobazam]
Number of marbles buried (Mean ± SEM) (Male Swiss mice [1]): 0.5 ± 0.3^a

CN(C)CCCN1c2ccccc2Sc2ccc(Cl)cc21 [Chlorpromazine]
Number of crossings (Mean ± SEM) (Male Swiss mice [2]): 3.6 ± 0.7^a
